# Test results published in patent publication US20150216870A1, “Combination of PI3K Inhibitor and C-Met Inhibitor” (Novartis AG, priority 2012, published 2015).
# “Also recorded” adds a separate entry of the source.
# Tests used:
# EBC-1 = assay: Cell viability (CellTiterGlo) combination dose matrix in EBC-1; type: cell-based, human; details: combination with c-Met inhibitor, 72 h, excluding highest concentration, 0 no inhibition, 1 = 100% inhibition/stasis, 2 = cell death
# Protocol: (§2) Compound stocks of both compounds are individually prepared in DMSO. Compounds are serially diluted using a Tecan dispenser to cover a ˜1000× range of concentrations. […] Both single agent and combinations are tested at multiple concentrations, along with controls and one self-cross.
# (§3) The cell lines used in this study are purchased from American Type Cell Collection, including human non small cell lung cancer cell lines EBC-1 (which bears c-Met amplification), NCI-H1993 (which bears c-MET amplified), NCI-H1648 (which bears c-Met amplification), NCI-H1573 (which bears c-Met amplification and KRAS mutation) and HCC2935 (EGFR mutation). All cell lines are maintained in their respective culture medium as specified by the provider.
# (§4) For the assessment of combination effects, cells are seeded into 384-well plates at 500 cells/well and incubated overnight. […]
# (§5) Effects of single agents as well as their combination on cell viability is assessed after 72 hours of incubation at 37° C./5% CO2 by quantification of cellular ATP levels (CellTiterGlo, Promega) using 25 μL reagent/well and n=2 replicate plates per condition. The number/viability of cells at time of compound addition is likewise assessed and used to estimate the population doubling time of a cell line.
# (§6) For untreated and treated levels U and T, inhibition is calculated using the formula I=1−T/U, which ranges from 0% to 100% for complete inhibition. […]
# (§7) The Loewe expectation [Loewe S., Ergebn Physiol 27: 47-187 (1928)) is calculated at each dose pair CX,Y by finding the inhibition ILoewe such that (CX/ICX)+(CY/ICY)=1, and ICX,Y are the effective concentrations at ILoewe for the fitted single agent curves, using numerical optimization [Berenbaum M C, J Theor Biol 114: 413-431 (1985)]. The “synergy score” S is calculated by averaging the difference between Idata and ILoewe across all the tested combination dose points, excluding the highest concentration point in the dose matrix, which is most likely to be dominated by drug off-target effects. […]
# NCI-H1993 = assay: Cell viability (CellTiterGlo) combination dose matrix in NCI-H1993; type: cell-based, human; details: combination with c-Met inhibitor, 72 h, excluding highest concentration
# Protocol: as §2, §3, §4, §5, §6, §7
# NCI-H1648 = assay: Cell viability (CellTiterGlo) combination dose matrix in NCI-H1648; type: cell-based, human; details: combination with c-Met inhibitor, 72 h, excluding highest concentration
# Protocol: as §2, §3, §4, §5, §6, §7
# NCI-H1573 = assay: Cell viability (CellTiterGlo) combination dose matrix in NCI-H1573; type: cell-based, human; details: combination with c-Met inhibitor, 72 h, excluding highest concentration
# Protocol: as §2, §3, §4, §5, §6, §7
# HCC2935 = assay: Cell viability (CellTiterGlo) combination dose matrix in HCC2935; type: cell-based, human; details: combination with c-Met inhibitor, 72 h, excluding highest concentration
# Protocol: as §2, §3, §4, §5, §6, §7
# [1] = tested on: NCI-H1993 human non-small cell lung carcinoma xenograft; assay: NCI-H1993 xenograft tumor growth inhibition and tumor growth delay; type: in vivo, athymic nude mice; details: COMPOUND D 30 mg/kg p.o. qd to end
# From the text: In this experiment, the NCI-H1993 human non-small cell lung carcinoma xenograft model is used to assess the anti-tumor efficacy of the PI3K inhibitor COMPOUND D and c-Met inhibitor 2-fluoro-N-methyl-4-[7-quinolin-6-yl-methyl)-imidazo[1,2-b][1,2,4]triazin-2yl]benzamide as single agents or in combination. NCI-H1993 tumor cells obtained from the American Type Culture Collection (ATCC) are derived from a lymph node metastasis of a patient having a stage 3A lung adenocarcinoma and a history of smoking.
# Female athymic nude mice (Crl:NU (Ncr)-Foxn1^nu, Charles River) are 8 weeks old, and have a body weight (BW) range of 16.1-26.2 g, on D1 of the study. The animals are fed ad libitum water (reverse osmosis, 1 ppm CI) and NIH 31 Modified and Irradiated Lab Diet® consisting of 18.0% crude protein, 5.0% crude fat, and 5.0% crude fiber. The mice are housed on irradiated Enrich-O'cobs™ Laboratory Animal Bedding in static microisolators on a 12-hour light cycle at 20-22° C. (68-72° F.) and 40-60% humidity.
# The NCI-H1993 tumor line is obtained from the American Type Culture Collection and maintained at DRS_NC in RPMI-1640 medium containing 100 unites/penicillin G sodium, 100 µg/mL streptomycin sulfate, 25 µg/mL gentamicin, 10% fetal bovine serum, and 2 mM glutamine. The tumor cells are cultured in tissue culture flasks in a humidified incubator at 37° C. in an atmosphere of 5% CO2 and 95% air.
# The tumor cells used for implementation are harvested during log phase growth and resuspended in cold PBS containing 50% Matrigel™ (BD Biosciences). Each mouse is injected subcutaneously in the right flank with 1×10^7 cells (0.2 mL cell suspension). Tumors are calipered in two dimensions to monitor growth as their mean volume approached the desired 200-250 mm^3 range. Tumor size, in mm^3, was calculated from: Tumor Volume=(width^2×length)/2, where width and length (in mm) are measurements of the tumor. Tumor weight can be estimated with the assumption that 1 mg is equivalent to 1 mm^3 of tumor volume. Fourteen days after tumor cell implantation, on D1 of the study, mice with individual tumor volumes of 172-256 mm^3 are sorted into groups of ten mice, with group mean tumor volumes of 206-215 mm^3.
# The c-Met inhibitor 2-fluoro-N-methyl-4-[7-quinolin-6-yl-methyl)-imidazo[1,2-b][1,2,4]triazin-2yl]benzamide (HCl salt, 84.98% free base) is stored at 4° C. and is added to a volume of deionized water equal to 1/2 of the final volume and sonicated until dissolved to obtain a uniform 2× suspension. An equal volume of 0.5% methylcellulose: 0.1% Tween® 80 is added to provide a 1.77 mg/mL solution with final vehicle concentrations of 0.25% methylcellulose and 0.05% Tween® 80 in deionized water (Vehicle 1). Fresh solutions are prepared once daily for the […]. dosing and stored at room temperature until the a.m. dosing.
# COMPOUND D is suspended at 3.0 mg/mL in 0.5% methylcellulose in deionized water. The vehicle is added in portions equal to 1/3 of the final volume. The suspension is vortexed after each addition, and then finally probe sonicated on ice to prepare a homogeneous white suspension. A fresh suspension is prepared weekly, stored at 4° C., and re-suspended prior to dosing.
# The c-MET inhibitor and the vehicle is each administered via oral gavage (p.o.) twice daily for the duration of the study (b.i.d. to end). COMPOUND D is administered via oral gavage (p.o.) once daily for the duration of the study (qd to end). In combination therapies, COMPOUND D is dosed within 30 minutes after the c-Met inhibitor. In all groups, the dosing volume of 10 mL/kg (0.2 mL/20 g mouse) is scaled to the weight of each animal as determined on the day of dosing, except on weekends when the previous BW is carried forward.
# The groups of nude mice (n=10/group) are treated as follows. Group 1 receive Vehicle 1 and Vehicle 2 and serve as controls for the study. […] Group 3 receives 30 mg/kg COMPOUND D monotherapy once daily for the duration of the study (qd to end).
# [2] = Toxicity (body weight, deaths) in NCI-H1993 xenograft study; type: in vivo; details: COMPOUND D 30 mg/kg p.o. qd to end
# Protocol: (§1) Animals are weighed on Days 1-5, on each treatment day (except weekends), and twice weekly thereafter, until the end of the study. The maximum group mean body weight (BW) loss is determined for the interval between D1 and D20 as well as for the entire study. Group mean BW nadir determinations exclude measurements taken after more than 50% of the assessable mice in the group have exited the study, and also exclude any animal that was classified as a non-treatment related (NTR) death during the study. Acceptable toxicity for the maximum tolerated dose (MTD) is defined as a group mean BW loss of less than 15% during the test, and not more than one TR death among ten animals. Any animal with BW losses exceeding 15% for three consecutive measurements, or with a BW loss exceeding 20% for one measurement, are euthanized, and classified as a TR death unless it was the first death in the group. A death is classified as NTR if there was no evidence that the death is related to treatment side effects and the death occurs more than 14 days after dosing ended. NTR deaths are categorized as NTRa (due to accident or error), NTRu (due to unknown causes), or NTRm (necropsy-confirmed tumor dissemination by invasion and/or metastasis). To conserve animals while providing maximum information, the first death in a group was classified as NTRu; such an NTR death was to be reclassified as TR if two subsequent TR deaths are recorded in the same group.
# [3] = tested on: U-87 MG human glioblastoma xenograft; assay: U-87 MG xenograft tumor growth inhibition and tumor growth delay; type: in vivo, nude mice; details: temozolomide 100 mg/kg p.o. qd x5
# Protocol: In this experiment, the U-87 MG human glioblastoma xenograft model is used to assess the anti-tumor efficacy of the PI3K inhibitor COMPOUND C and c-Met inhibitor 2-fluoro-N-methyl-4-[7-quinolin-6-yl-methyl)-imidazo[1,2-b][1,2,4]triazin-2yl]benzamide as single agents or in combination. U-87 MG tumor cells obtained from the National Cancer Institute are reported to be homozygous for likely oncogenic variants of CDKN2A, CDKN2C, CDKN2a, and PTEN; no mutations are detected in MET, PIK3CA, or 58 other genes that are frequently altered in neoplastic cells; and HGF expressing.
# Mice are treated daily for 21 days with 17.7 and 35.3 mg/kg of the c-Met inhibitor and 32.7 mg/kg COMPOUND C monotherapies, and with the c-Met inhibitor/COMPOUND C dual therapy at 17.7:32.7. An c-Met inhibitor/COMPOUND C combination at the 58.8:5.4 mg/kg dose ratio was included in the study. The control mice received both vehicles, and a standard preclinical temozolomide regimen monitored tumor model performance. The oral treatments began on Day 1 (D1) in nude mice with established subcutaneous tumors. Each animal was euthanized when its tumor reached the predetermined 2000 mm3 endpoint volume, or on D60, whichever came first. The study was terminated on D51. […] Overall efficacy was determined from the times required for tumors to progress to the volume endpoint, and from D51 survival and regression rates. This report describes the methods and results of the U87MG-e326 tumor growth delay experiment.
# The animals are fed ad libitum water (reverse osmosis, 1 ppm CI) and NIH 31 Modified and Irradiated Lab Diet® consisting of 18.0% crude protein, 5.0% crude fat, and 5.0% crude fiber. The mice are housed on irradiated Enrich-O'cobs™ Laboratory Animal Bedding in static microisolators on a 12-hour light cycle at 20-22° C. (68-72° F.) and 40-60% humidity.
# The U-87 MG tumor line is obtained from the American Type Culture Collection and maintained by serial engraftment in nude mice. A tumor fragment (1 mm^3) is implanted subcutaneously into the right flank of each test mouse. Tumors are calipered in two dimensions to monitor growth as their mean volume approached the desired 100-150 mm^3 range. Tumor size, in mm^3, was calculated from: Tumor Volume=(width^2×length)/2, where width and length (in mm) are measurements of the tumor. Tumor weight can be estimated with the assumption that 1 mg is equivalent to 1 mm^3 of tumor volume. Fourteen days after tumor cell implantation, on D1 of the study, mice with individual tumor volumes of 63-196 mm^3 are sorted into seven groups, with group mean tumor volumes of 122-127 mm^3.
# The c-Met inhibitor 2-fluoro-N-methyl-4-[7-quinolin-6-yl-methyl)-imidazo[1,2-b][1,2,4]triazin-2yl]benzamide (di-HCl salt, 84.98% free base) is stored at 4° C. and is added to deionized water at 2× the final concentration and sonicated until dissolved. An equal volume of 0.5% methylcellulose and 0.1% Tween® 80 in deionized water is added to provide a 5.884 mg/mL dosing solution in 0.25% methylcellulose and 0.05% Tween® 80 in deionized water (Vehicle 1). Portions of this solution are diluted with Vehicle 1 to provide 3.53 and 1.765 mg/mL dosing solutions.
# COMPOUND C (HCl salt, 91.85% free base) is stored at −20° C. and is added to 1% Tween® 80 in deionized water and sonicated to obtain a uniform suspension at 2× the final concentration. […] The 0.544 mg/mL dosing suspension is obtained by diluting a portion of the first suspension with Vehicle 2.
# [4] = Toxicity (deaths) in U-87 MG xenograft study; type: in vivo; details: temozolomide 100 mg/kg p.o. qd x5
# From the text: as §1, with “the study. Group mean” for “the study. The maximum group mean body weight (BW) loss is determined for the interval between D1 and D20 as well as for the entire study. Group mean”, “the group had exited the” for “the group have exited the”, “and also excluded any animal” for “and also exclude any animal”, “classified as an NTR death during” for “classified as a non-treatment related (NTR) death during”, “classified as Non-Treatment Related (NTR) if there” for “classified as NTR if there”
SMILES,"MaxGI (GImax, combination effectiveness) (EBC-1)","MaxGI (GImax, combination effectiveness) (NCI-H1993)","MaxGI (GImax, combination effectiveness) (NCI-H1648)","MaxGI (GImax, combination effectiveness) (NCI-H1573)","MaxGI (GImax, combination effectiveness) (HCC2935)",% TGD [1],D20 tumor growth inhibition / activity (in words) [1],T-C [1],T/C or T/T0 ([1]; D20),Median TTE ([1]; endpoint 600 mm3),Regression: PR ([1]; number of animals),overall survival (in words) ([1]; vs control Group 1),Deaths [2],tolerability (in words) [2],% TGD [3],T/C or T/T0 ([3]; D13),Median TTE ([3]; endpoint 2000 mm3),Regress. ([3]; number of animals),Deaths [4]
"Cc1nc(NC(=O)N2CCC[C@H]2C(N)=O)sc1-c1ccnc(C(C)(C)C(F)(F)F)c1 [COMPOUND D, (S)-Pyrrolidine-1,2-dicarboxylic acid 2-amide 1-({4-methyl-5-[2-(2,2,2-trifluoro-1,1-dimethyl-ethyl)-pyridin-4-yl]-thiazol-2-yl}-amide)]",1.87,1.21,1.37,0.57,0.77,−4%,non-significant median tumor growth acceleration; also recorded: not significantly active (inactive),-1.1 days,117%,24.0 days,1 PR,non-significantly briefer overall survival than control,(0),Well-tolerated,–,–,–,–,–
"Cn1c(=O)n(-c2ccc(C(C)(C)C#N)cc2)c2c3cc(-c4cnc5ccccc5c4)ccc3ncc21 [COMPOUND A, 2-methyl-2-[4-(3-methyl-2-oxo-8-quinolin-3-yl-2,3-dihydro-imidazo[4,5-c]quinolin-1-yl)-phenyl]-propionitrile]",1.90,1.33,1.72,1.90,1.36,–,–,–,–,–,–,–,–,–,–,–,–,–,–
"Cn1nnc2c(C(N)=O)ncn2c1=O [Temozolomide, reference compound]",–,–,–,–,–,–,–,–,–,–,–,–,–,–,51%,48%,17.7 days,0,(0)
